Source: patent US20240067660A1, “MACROCYCLIC SPIROCYCLE DERIVATIVES AS MCL-1 INHIBITORS” (Janssen Pharmaceutica NV, priority 2019, published 2024)
Where two headings read alike, the source gives them in different places.

Legend:
[1] = tested on: MOLP-8 human multiple myeloma cell line; assay: Caspase-Glo 3/7 assay in MOLP-8 cells; assay type: cell-based; conditions: Caspase-Glo 3/7, 2 hours incubation, averaged over all runs on all batches, read-out: MOLP8 AC50
From the text: MCL-1 is a regulator of apoptosis and is highly over-expressed in tumor cells that escape cell death. The assay evaluates the cellular potency of small-molecule compounds targeting regulators of the apoptosis pathway, primarily MCL-1, Bfl-1, Bcl-2, and other proteins of the Bcl-2 family. Protein-protein inhibitors disrupting the interaction of anti-apoptotic regulators with BH3-domain proteins initiate apoptosis.
The Caspase-Glo® 3/7 Assay is a luminescent assay that measures caspase-3 and -7 activities in purified enzyme preparations or cultures of adherent or suspension cells. The assay provides a proluminescent caspase-3/7 substrate, which contains the tetrapeptide sequence DEVD. This substrate is cleaved to release aminoluciferin, a substrate of luciferase used in the production of light. Addition of the single Caspase-Glo® 3/7 Reagent in an “add-mix-measure” format results in cell lysis, followed by caspase cleavage of the substrate and generation of a “glow-type” luminescent signal.
This assay uses the MOLP-8 human multiple myeloma cell line, which is sensitive to MCL-1 inhibition.
Cell cultures were maintained between 0.2 and 2.0×10^6 cells/mL. The cells were harvested by collection in 50 mL conical tubes. The cells were then pelleted at 500 g for 5 mins before removing supernatant and resuspension in fresh pre-warmed culture medium. The cells were counted and diluted as needed.
The assay reagent was prepared by transferring the buffer solution to the substrate vial and mixing. The solution may be stored for up to 1 week at 4° C. with negligible loss of signal.
Compounds were delivered in assay-ready plates (Proxiplate) and stored at −20° C. Assays always include 1 reference compound plate containing reference compounds. The plates were spotted with 40 nL of compounds (0.5% DMSO final in cells; serial dilution; 30 μM highest conc. 1/3 dilution, 10 doses, duplicates). The compounds were used at room temperature and 4 μL of pre-warmed media was added to all wells except column 2 and 23. The negative control was prepared by adding 1% DMSO in media. The positive control was prepared by adding the appropriate positive control compound in final concentration of 60 μM in media. The plate was prepared by adding 4 μL negative control to column 23, 4 μL positive control to column 2 and 4 μL cell suspension to all wells in the plate. The plate with cells was then incubated at 37° C. for 2 hours. The assay signal reagent is the Caspase-Glo solution described above, and 8 μL was added to all wells. The plates were then sealed and measured after 30 minutes.
The activity of a test compound was calculated as percent change in apoptosis induction as follows: […]

[2] = target: Myeloid Cell Leukemia 1(Mcl-1) (Homo sapiens (Human), UniProt Q07820); assay: Terbium labeled Mcl-1 HTRF binding assay with Cy5-labeled BIM BH3 peptide
Procedure: Terbium labeled Myeloid Cell Leukemia 1(Mcl-1) homogeneous time-resolved fluorescence (HTRF) binding assay utilizing the BIM BH3 peptide (H2N-(C/Cy5Mal) WIAQELRRIGDEFN-OH) as the binding partner for Mcl-1.
This assay evaluated inhibition of the BH3 domain: Mcl-1 interaction by measuring the displacement of Cy5-labeled BIM BH3 peptide (H2N—(C/Cy5Mal) WIAQELRRIGDEFN-OH) in the HTRF assay format.
The following assay and stock buffers were prepared for use in the assay: (a) Stock buffer: 10 mM Tris-HCl, pH=7.5+150 mM NaCl, filtered, sterilized, and stored at 4° C.; and (b) 1× assay buffer, where the following ingredients were added fresh to stock buffer: 2 mM dithiothreitol (DTT), 0.0025% Tween-20, 0.1 mg/mL bovine serum albumin (BSA). The 1×Tb-Mcl-1+Cy5 Bim peptide solution was prepared by diluting the protein stock solution using the 1× assay buffer (b) to 25 pM Tb-Mcl-1 and 8 nM Cy5 Bim peptide.
Using the Acoustic ECHO, 100 nL of 100× test compound(s) were dispensed into individual wells of a white 384-well Perkin Elmer Proxiplate, for a final compound concentration of lx and final DMSO concentration of 1%. Inhibitor control and neutral control (NC, 100 nL of 100% DMSO) were stamped into columns 23 and 24 of assay plate. Into each well of the plate was then dispensed 10 μL of the 1×Tb-Mcl-1+Cy5 Bim peptide solution. The plate was centrifuged with a cover plate at 1000 rpm for 1 minute, then incubated for 60 minutes at room temperature with plates covered.
The TR-FRET signal was read on an BMG PHERAStar FSX MicroPlate Reader at room temperature using the HTRF optic module (HTRF: excitation: 337 nm, light source: laser, emission A: 665 nm, emission B: 620 nm, integration start: 60 μs, integration time: […]).
The BMG PHERAStar FSX MicroPlate Reader was used to measure fluorescence intensity at two emission wavelengths—665 nm and 620 nm—and report relative fluorescence units (RFU) for both emissions, as well as a ratio of the emissions (665 nm/620 nm)*10,000. The RFU values were normalized to percent inhibition as follows:
% inhibition=((NC−IC)−(compound−IC))/(NC−IC))*100
where IC (inhibitor control, low signal)=mean signal of 1×Tb-MCl-1+Cy5 Bim peptide+inhibitor control or 100% inhibition of Mcl-1; NC (neutral control, high signal)=mean signal 1×Tb-MCl-1+Cy5 Bim peptide with DMSO only or 0% inhibition An 11-point dose response curve was generated to determine IC50 values (using GenData) based on the following equation:
Y=Bottom+(Top−Bottom)/(1+10^((IogIC50−X)*HillSlope))
where Y=% inhibition in the presence of X inhibitor concentration; Top=100% inhibition derived from the IC (mean signal of Mcl-1+inhibitor control); Bottom=0% inhibition derived from the NC (mean signal of Mcl-1+DMSO); Hillslope=Hill coefficient; and IC50=concentration of compound with 50% inhibition in relation to top/neutral control (NC).
In this assay [L]=8 nM and Kd=10 nM

[3] = first table, [L]=8 nM, Kd=10 nM, before recalibration of the equipment
[4] = obtained after recalibration of the equipment, averaged values over several runs

Myeloid Cell Leukemia 1(Mcl-1), sequence (Q07820 whole entry): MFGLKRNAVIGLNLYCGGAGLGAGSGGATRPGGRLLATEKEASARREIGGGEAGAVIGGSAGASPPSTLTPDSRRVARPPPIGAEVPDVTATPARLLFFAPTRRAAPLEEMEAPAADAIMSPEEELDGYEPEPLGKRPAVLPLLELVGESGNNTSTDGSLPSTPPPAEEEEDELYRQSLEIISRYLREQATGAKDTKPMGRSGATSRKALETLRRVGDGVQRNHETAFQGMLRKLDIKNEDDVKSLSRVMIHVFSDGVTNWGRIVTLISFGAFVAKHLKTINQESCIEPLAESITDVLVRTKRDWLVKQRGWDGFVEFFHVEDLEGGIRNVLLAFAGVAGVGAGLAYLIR

| SMILES | AC50 ([1]; Homo sapiens, MOLP-8, 2 h) [nM] | Ki [2, 3] [nM] | Ki [2, 4] [nM] | AC50 [1] [nM] |
| --- | --- | --- | --- | --- |
| C[C@@H]1[C@@H](C)C/C=C(\F)[C@H](COCC(=O)N2CCOCC2)N2CC[C@H]2CN2C[C@@]3(CCCc4cc(Cl)ccc43)COc3ccc(cc32)C(=O)NS1(=O)=O [Compound 18] | 448 | 0.24 | 0.24 |  |
| COCC1/C=C/C[C@H](C)[C@@H](C)S(=O)(=O)NC(=O)c2ccc3c(c2)N(C[C@@H]2CCCN12)C[C@@]1(CCCc2cc(Cl)ccc21)CO3 (single isomer, unassigned) [Compound 8] | 1330 | 2.04 | 2.64 |  |
| COC[C@H]1/C=C/C[C@@H](C)[C@@H](C)S(=O)(=O)NC(=O)c2ccc3c(c2)N(C[C@@H]2CCN21)C[C@@]1(CCCc2cc(Cl)ccc21)CO3 [Compound 4] | 740 | 1.98 | 3.15 |  |
| CC(C)COC[C@H]1/C(F)=C/C[C@H](C)[C@@H](C)S(=O)(=O)NC(=O)c2ccc3c(c2)N(C[C@@H]2CCN21)C[C@@]1(CCCc2cc(Cl)ccc21)CO3 [Compound 15] | 1860 | 3.64 | 2.33 |  |
| COC[C@H]1/C(F)=C/C[C@H](C)[C@@H](C)S(=O)(=O)NC(=O)c2ccc3c(c2)N(C[C@@H]2CCN21)C[C@@]1(CCCc2cc(Cl)ccc21)CO3 [Compound 13] | 181 | 0.49 | 0.51 |  |
| C[C@@H]1[C@@H](C)C/C=C(\F)[C@H](COc2ccccn2)N2CC[C@H]2CN2C[C@@]3(CCCc4cc(Cl)ccc43)COc3ccc(cc32)C(=O)NS1(=O)=O [Compound 11] | 1490 | 3.97 | 2.13 |  |
| COC[C@@H]1/C=C/C[C@@H](C)[C@@H](C)S(=O)(=O)NC(=O)c2ccc3c(c2)N(C[C@@H]2CCN21)C[C@@]1(CCCc2cc(Cl)ccc21)CO3 [Compound 7] | 852 | 0.83 | 0.61 |  |
| C[C@@H]1[C@@H](C)C/C=C/C(CO)N2CC[C@H]2CN2C[C@@]3(CCCc4cc(Cl)ccc43)COc3ccc(cc32)C(=O)NS1(=O)=O (single isomer, unassigned) [Compound 10] | 1490 | 2.65 |  |  |
| C[C@@H]1[C@@H](C)C/C=C(\F)[C@H](COCC2CCC2)N2CC[C@H]2CN2C[C@@]3(CCCc4cc(Cl)ccc43)COc3ccc(cc32)C(=O)NS1(=O)=O [Compound 26] | 2520 | 4.72 | 2.87 |  |
| C[C@@H]1[C@@H](C)C/C=C(\F)[C@H](COCC(=O)N2CC(F)(F)C2)N2CC[C@H]2CN2C[C@@]3(CCCc4cc(Cl)ccc43)COc3ccc(cc32)C(=O)NS1(=O)=O [Compound 19] | 302 | 0.43 | 0.36 |  |
| COCCCOC[C@H]1/C(F)=C/C[C@H](C)[C@@H](C)S(=O)(=O)NC(=O)c2ccc3c(c2)N(C[C@@H]2CCN21)C[C@@]1(CCCc2cc(Cl)ccc21)CO3 [Compound 22] | 274 | 1.29 | 0.69 |  |
| C[C@@H]1[C@@H](C)C/C=C(\F)[C@H](COCC(=O)O)N2CC[C@H]2CN2C[C@@]3(CCCc4cc(Cl)ccc43)COc3ccc(cc32)C(=O)NS1(=O)=O [Compound 17] | 5990 | 0.13 | 0.17 |  |
| C[C@@H]1[C@@H](C)C/C=C(\F)[C@H](COCCC2CCOCC2)N2CC[C@H]2CN2C[C@@]3(CCCc4cc(Cl)ccc43)COc3ccc(cc32)C(=O)NS1(=O)=O [Compound 23] | 545 | 1.52 | 0.82 |  |
| C[C@@H]1[C@@H](C)C/C=C(\F)[C@H](CF)N2CC[C@H]2CN2C[C@@]3(CCCc4cc(Cl)ccc43)COc3ccc(cc32)C(=O)NS1(=O)=O [Compound 31] | 512 |  | 0.86 |  |
| CCOC[C@H]1/C(F)=C/C[C@H](C)[C@@H](C)S(=O)(=O)NC(=O)c2ccc3c(c2)N(C[C@@H]2CCN21)C[C@@]1(CCCc2cc(Cl)ccc21)CO3 [Compound 16] | 207 | 0.83 |  |  |
| C[C@@H]1[C@@H](C)C/C=C(\F)[C@H](CO)N2CC[C@H]2CN2C[C@@]3(CCCc4cc(Cl)ccc43)COc3ccc(cc32)C(=O)NS1(=O)=O [Compound 9] | 144 | 0.22 | 0.23 |  |
| Cc1nc(COC[C@H]2/C(F)=C/C[C@H](C)[C@@H](C)S(=O)(=O)NC(=O)c3ccc4c(c3)N(C[C@@H]3CCN32)C[C@@]2(CCCc3cc(Cl)ccc32)CO4)no1 [Compound 24] | 234 | 0.63 | 0.47 |  |
| C[C@@H]1[C@@H](C)C/C=C(\F)[C@H](COc2ccccn2)N2CC[C@@H]2CN2C[C@@]3(CCCc4cc(Cl)ccc43)COc3ccc(cc32)C(=O)NS1(=O)=O [Compound 12] |  |  | 2.15 | 520 |
| C[C@@H]1[C@@H](C)C/C=C(\F)[C@H](COCCCN2CCOCC2)N2CC[C@H]2CN2C[C@@]3(CCCc4cc(Cl)ccc43)COc3ccc(cc32)C(=O)NS1(=O)=O [Compound 25] | 231 | 0.2 | 0.21 |  |
